Experimental data reported in publication PMC7680447 (Glycoconjugate journal, 2020).
“And” between values parts separate entries of the source, which are not always exact repeats. Equal entries are not always repeated. “Also recorded” adds a separate entry of the source. Where two headings read alike, the source gives them in different places.

B1: Asialofetuin (ASF) from fetal calf serum Type 1 (natural protein, bovine (from fetal calf serum), UniProt P12763 19-359, looked up)
chain: IPLDPVAGYKEPACDDPDTEQAALAAVDYINKHLPRGYKHTLNQIDSVKVWPRRPTGEVYDIEIDTLETTCHVLDPTPLANCSVRQQTQHAVEGDCDIHVLKQDGQFSVLFTKCDSSPDSAEDVRKLCPDCPLLAPLNDSRVVHAVEVALATFNAESNGSYLQLVEISRAQFVPLPVSVSVEFAVAATDCIAKEVVDPTKCNLLAEKQYGFCKGSVIQKALGGEDVRVTCTLFQTQPVIPQPQPDGAEAEAPSAVPDAAGPTPSAAGPPVASVVVGPSVVAVPLPLHRAHYDLRHTFSGVASVESSSGEAFHVGKTPIVGQPSIPGGPVRLCPGRIRYFKI
modifications: desialylated glycoprotein with three triantennary LacNAc presentations (glycan valency of nine)

Columns and labels:
[1] = target: his-tagged Gal-1 (Homo sapiens, UniProt P09382); experiment: Isothermal titration calorimetry, binding to his-tagged Gal-1; conditions: for n (binding stoichiometry): lectin treated as a dimer; for agreement of titrations: his-tagged Gal-1 vs Gal-1 and previously reported value, ref [40]
[2] = target: T1, Gal-1 (Galectin-1) (Homo sapiens, UniProt P09382); experiment: Isothermal titration calorimetry, binding to Gal-1; conditions: for −TΔS / −ΔH / Gal-1 binding affinity in words / −ΔG: phosphate buffer pH 7.2; for n-value: rounded/summary values in text, Gal-1 treated as a dimer for concentration input; for Gal-1 binding affinity in words: ITC in solution; for Kd in HEPES buffer (values not given): HEPES buffer containing 0.05% Tween-20, control titrations
[3] = tested on: Gal-1; conditions: glycan microarray format, ref [29]; cited from earlier work
[4] = target: T1, Gal-1 (Galectin-1); conditions: in solution, isothermal titration calorimetry, ref [16]; cited from earlier work
[5] = tested on: Gal-1 CRD in Gal-1/Gal-3 heterodimers; conditions: sequential model, at full loading, ref [48]; cited from earlier work
[6] = tested on: Gal-1, His52 mutant; conditions: mutagenesis of His52 enabled binding of TF; ref [16]; cited from earlier work
[7] = target: T2, Gal-3 (Galectin-3) (Homo sapiens, UniProt P17931); conditions: ref [34]; cited from earlier work
[8] = target: T2, Gal-3 (Galectin-3); experiment: Binding to Gal-3; conditions: Gal-3 affinity greater than Gal-1 (Table 1 and Fig. S15)
[9] = target: histidine-tagged Galectin-1 (human, UniProt P09382 1-135); experiment: ITC
[10] = target: Galectin-3 (UniProt P17931 1-250); experiment: ITC
[11] = target: Galectin-1 (human, UniProt P09382 1-135); experiment: ITC
[12] = ITC, 25 °C, pH 7.2, ASF at 0.525 mM
[13] = ITC, 25 °C, one-set-of-sites model
[14] = ITC, PEAQ-ITC, 25 °C, 20 mM phosphate, 10 mM NaCl, 10 mM β-mercaptoethanol, pH 7.2, one-set-of-sites model, [ligand] mM/[cell] μM: LacNAc 6.0/140, lactose 8.0/80, ASF 218/61 (so in the source), TF and Thr-TF 6.0/50
[15] = second ASF titration: 0.700 mM ASF, 200 μM His-tag-Gal-1, ITC, 25 °C, pH 7.2

T1 sequence (P09382 whole entry): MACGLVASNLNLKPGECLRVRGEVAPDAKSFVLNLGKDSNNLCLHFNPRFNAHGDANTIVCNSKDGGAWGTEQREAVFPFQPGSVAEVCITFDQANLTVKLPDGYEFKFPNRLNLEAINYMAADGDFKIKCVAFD
Sequence of histidine-tagged Galectin-1 (P09382 whole entry): as above
Sequence of his-tagged Gal-1 (P09382 whole entry): as above
T2 sequence (P17931 whole entry): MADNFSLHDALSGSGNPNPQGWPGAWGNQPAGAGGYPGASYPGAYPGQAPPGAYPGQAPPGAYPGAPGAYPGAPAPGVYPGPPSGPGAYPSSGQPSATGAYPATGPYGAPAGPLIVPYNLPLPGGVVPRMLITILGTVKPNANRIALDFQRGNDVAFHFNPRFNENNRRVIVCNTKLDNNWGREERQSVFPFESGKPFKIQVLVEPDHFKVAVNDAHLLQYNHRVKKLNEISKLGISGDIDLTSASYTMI
Sequence of Galectin-1 (P09382 whole entry): as the sequence (P09382 whole entry) above
Sequence of Galectin-3 (P17931 whole entry): as the sequence (P17931 whole entry) above

Row | Molecule | −TΔS [1, 12] [kcal/mol] | −ΔH [1, 12] | n (binding stoichiometry) [1, 12] | agreement of titrations [1] | −TΔS [2, 13] [kcal/mol] | −ΔH [2, 13] | n-value [2] | Gal-1 binding affinity in words ([2]; 25 °C) | −ΔG [2, 13] [kcal/mol] | Ka [2, 14] [M⁻¹] | Kd [2, 14] [mM] | −ΔG [1, 12] [kcal/mol] | Kd in HEPES buffer (values not given) [2] | other results
1 | OC[C@H]1O[C@@H](O[C@H]2[C@H](O)[C@@H](O)C(O)O[C@@H]2CO)[C@H](O)[C@@H](O)[C@H]1O (mixture of isomers) [Lactose, lactose] | 4.04 | 8.67 (± 1.43) kcal/mol | 2.05 | in agreement with values obtained for Gal-1 and previously reported value | 7.09 | 11.9 (± 0.906) kcal/mol | 2 |  |  |  |  |  |  | 
2 | CC(=O)NC1C(OC(C)C(N)C(=O)O)OC(CO)C(O)C1OC1OC(CO)C(O)C(O)C1O (centres unmarked) [Thr-TF, Gal1–3βGalNAcα1-O-Thr] |  |  |  |  | 13.3 | 16.6 (± 0.269) kcal/mol |  | failed to recognize TF disaccharide and Thr-TF (TF antigen) beyond the millimolar affinity | 3.28 | 250 | 3.96 |  |  | Gal-1 binding affinity in words ([2]; 25 °C, listed as Thr-TF antigen): binding by Gal-1 in mM range
3 | CC(=O)N[C@@H](C=O)[C@@H](O[C@@H]1O[C@H](CO)[C@H](O)[C@H](O)[C@H]1O)[C@@H](O)[C@H](O)CO [TF, 2-Acetamido-2-deoxy-3-O-β-D-galactopyranosyl-D-galactose] |  |  |  |  | 13.4 | 16.7 (± 0.221) kcal/mol |  |  | 3.30 | 260 |  |  |  | Gal-1 binding to TF antigen, glycan microarray [3]: did not bind significantly; Gal-1 recognition of TF antigen by ITC (Bian et al.) [4]: failed to observe Gal-1 recognition of the TF antigen in solution beyond millimolar affinity; Affinity of the Gal-1 CRD for TF [5]: high mM range; Kd [2]: 3.8 mM; Gal-1 binding affinity in words ([2]; 25 °C, listed as TF disaccharide): binding by Gal-1 in mM range; also recorded: failed to recognize TF disaccharide and Thr-TF (TF antigen) beyond the millimolar affinity; Affinity of TF for His52-mutated Gal-1 [6]: high μM affinity; Thermodynamic driving force of Gal-3 binding [7]: enthalpy-driven
4 | ASF: Asialofetuin from fetal calf serum Type 1, a glycoprotein with three triantennary LacNAc presentations | 50.1 |  |  | in agreement with values obtained for Gal-1 and previously reported value | 58.2 |  |  | remained in the uM range; also recorded: low micromolar affinity | 7.15 | 174000 | 0.00576 | 7.37 | mirrored the values obtained in phosphate buffer | Ka [1, 15]: 340100 M⁻¹; Kd [1, 15]: 2.94 µM; −TΔS [1, 15]: 49.6 kcal/mol; −ΔG [1, 15]: 7.55 kcal/mol
5 | CC(=O)N[C@H]1C(O)O[C@H](CO)[C@@H](O[C@@H]2O[C@H](CO)[C@H](O)[C@H](O)[C@H]2O)[C@@H]1O (some centres unmarked) [LacNAc, N-Acetyllactosamine] | 4.27 | 9.79 (± 0.206) kcal/mol | 2.02 | in agreement with values obtained for Gal-1 and previously reported value | 4.40 | 9.97 (± 0.151) kcal/mol | 2 |  | 5.57 | 12000 | 0.083 | 5.53 | mirrored the values obtained in phosphate buffer | Gal-3 affinity relative to Gal-1 [8]: ~2 x
6 | B1 |  |  |  |  |  |  |  |  |  |  |  |  |  | -dH [9]: 57.1 kcal/mol and 57.5 kcal/mol; stoichiometry N [9]: 0.274 and 0.283; fold affinity for ASF against Gal-1 [10]: ~12 fold; -dH [11]: 65.4 ± 1.42 kcal/mol; stoichiometry N [11]: 0.222
